This is an account of results in patent publication US7605272B2, “IGF-1R inhibitor” (Kyowa Hakko Kirin Co., Ltd., priority 2005, dated 2009).

The test system of one experiment is NCI-H929. Description: Cytostatic activity on human multiple myeloma cell line NCI-H929 (WST-1). The class given is cell-based. To be noted: 10 μmol/L, 72 hours; for inhibition at 10 µM: Homo sapiens, NCI-H929, 72 h, read-out: cytostatic rate (%) H929 (10 μmol/L). The procedure: (§1) The cytostatic rates of a test compound on human multiple myeloma cell lines NCI-H929 and KMS-11, were determined in the following manner.
(§2) For culturing NCI-H929, Roswell Park Memorial Institute's Medium (RPMI) 1640 (Gibco, Catalog No. 11875-093) containing 15% fetal bovine serum (Gibco, Catalog No. 10099-141), 1 mmol/L sodium pyruvate (Gibco, Catalog No. 11360-070), 10 mmol/L HEPES (Gibco, Catalog No. 15630-80), 4.5 g/L glucose (Sigma, Catalog No. G8769), 0.05 mmol/L 2-mercaptethanol (Nacalai Tesque, Catalog No. 21418-42) and penicillin/streptomycin (1:1) (Gibco, Catalog No. 15140-122) was used. For culturing KMS-11 cell, RPMI 1640 medium containing 10% fetal bovine serum and penicillin/streptomycin (1:1) was used. Each 80 μL of the NCI-H929 cell having a concentration of 1×10^5 cells/mL (or the KMS-11 cell having a concentration of 7.5×10^4 cells/mL) was inoculated to wells of a TC MICROWELL 96U plate (Nalge Nunc International, Catalog No. 163320) and was cultured in a 5% carbon dioxide gas incubator at 37° C. for 24 hours. Each 20 μL of a solution of the test compound in dimethyl sulfoxide (DMSO) which was prepared to make the final concentration to 1 μmol/L or 10 μmol/L, was added to each well. Each 20 μL of DMSO was added to the control well and the blank well to a final concentration of 0.1%. After adding the test compound, the cells were incubated in a 5% carbon dioxide gas incubator at 37° C. for 72 hours except for the blank well. After adding 20 μL of WST-1 reagent {4-[3-(4-iodophenyl)-2-(4-nitrophenyl)-2H-5-tetrazolio]-1,3-benzene disulfonate sodium salt} (Roche Diagnostics K.K., Catalog No. 1644807), which was diluted to 50% by RPMI medium to each well, the cells were further incubated at 37° C. for 2 hours. Then, the absorbances at 450 nm (reference wavelength: 690 nm) were measured with a microplate spectrophotometer SPECTRA max 340PC (Molecular Devices Corporation). The relative growth (%) of a well to which the test compound had been added and cultured for 72 hours was determined while setting the absorbance of a well to which not the test compound but DMSO alone had been added and cultured for 72 hours (control) as 100% and that of a well where the drugs are added (blank) as 0%. The cytostatic rate (%) of the test compound was determined by subtracting the calculated relative growth from 100.
Background: Tetrazolium assays rely on reduction of a dye to a coloured formazan, in cell work by metabolically active cells.

In a further experiment the target is T1, IGF-1R (Homo sapiens, UniProt P08069).
T1 construct: purchased Upstate Co. 14-465
T1 sequence (P08069 959-1367 limits assumed): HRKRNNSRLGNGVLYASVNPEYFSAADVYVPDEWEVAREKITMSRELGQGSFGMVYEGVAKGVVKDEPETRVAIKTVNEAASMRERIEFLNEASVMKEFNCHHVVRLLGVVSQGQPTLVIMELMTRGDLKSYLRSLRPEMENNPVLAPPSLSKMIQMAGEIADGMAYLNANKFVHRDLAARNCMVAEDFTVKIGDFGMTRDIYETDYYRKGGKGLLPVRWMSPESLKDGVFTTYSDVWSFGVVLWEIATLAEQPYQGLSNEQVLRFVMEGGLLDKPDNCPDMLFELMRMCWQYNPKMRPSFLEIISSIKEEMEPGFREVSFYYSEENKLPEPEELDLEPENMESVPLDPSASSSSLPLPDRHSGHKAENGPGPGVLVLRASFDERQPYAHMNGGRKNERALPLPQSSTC
Put plainly: IGF-1R inhibitory activity (kinase reaction, time-resolved fluoroimmunoassay). The class given is biochemical. The conditions noted are these: IGF-1R active recombinant enzyme, test compound 10 μmol/L. A digest of the protocol: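 Compounds were tested at a single 10 μmol/L concentration. Each was incubated with recombinant IGF-1R (200 μg/L), 10 mmol/L ATP, MgCl2/MnCl2 and Na3VO4 (pH 7.5) on immobilized poly(Glu-Tyr) peptide for 30 min at 24° C. Eu-anti-phosphotyrosine time-resolved fluorescence (340/615 nm) gave relative activity against no-compound and no-enzyme wells, reported as % inhibition.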

The next experiment concerns KMS-11. Put plainly: Cytostatic activity on human multiple myeloma cell line KMS-11 (WST-1). It is filed as cell-based. The conditions noted are these: 10 μmol/L, 72 hours; for inhibition at 10 µM: Homo sapiens, KMS-11, 72 h, read-out: cytostatic rate (%) KMS-11 (10 μmol/L). The procedure:
as §1, §2

As to `O=S(=O)(Nc1ccccc1/C=C/c1n[nH]c2ccccc12)c1ccccc1` [Compound 16, (E)-N-{2-[2-(1H-indazol-3-yl)vinyl]phenyl}benzenesulfonamide], the inhibition at 10 µM in the experiment with NCI-H929 is 64.7%; at IGF-1R, 59.2%; in the experiment on KMS-11, 85.2%.

As to `CN(C)c1ccc(C(=O)Nc2ccccc2/C=C/c2n[nH]c3ccccc23)cc1` [Compound 17, (E)-4-dimethylamino-N-{2-[2-(1H-indazol-3-yl)vinyl]phenyl}benzamide], the inhibition at 10 µM with NCI-H929 was 115%; on IGF-1R, 98.3%; in the experiment on KMS-11, 127%.

Regarding `CC(C)C(=O)Nc1ccccc1/C=C/c1n[nH]c2ccccc12` [Compound 18, (E)-N-{2-[2-(1H-indazol-3-yl)vinyl]phenyl}isobutylamide], in the experiment with NCI-H929, the “cytostatic rate (%) H929 (10 μmol/L)” value is listed as 112.7%. The “inhibitory activity (%) at 10 μmol/L” value on IGF-1R is 96.4%. For the same molecule, the “cytostatic rate (%) KMS-11 (10 μmol/L)” value in the experiment on KMS-11 is given as 124.1%.

With `COc1cccc(C(=O)Nc2ccccc2/C=C/c2n[nH]c3ccccc23)c1` [Compound 19, (E)-N-{2-[2-(1H-indazol-3-yl)vinyl]phenyl}-3-methoxybenzamide], the results for the inhibition at 10 µM in the experiment on NCI-H929, on IGF-1R and in the experiment on KMS-11 were 132%, 95.3% and 110%, respectively.

For `COc1ccccc1C(=O)Nc1ccccc1/C=C/c1n[nH]c2ccccc12` [Compound 20, (E)-N-{2-[2-(1H-indazol-3-yl)vinyl]phenyl}-2-methoxybenzamide], the inhibition at 10 µM in the experiment on NCI-H929 came to 130%; at IGF-1R, 97.3%; in the experiment with KMS-11 it was 107%.

As for `CCNC(=O)Nc1ccccc1/C=C/c1n[nH]c2ccccc12` [Compound 21, (E)-1-ethyl-3-{2-[2-(1H-indazol-3-yl)vinyl]phenyl}urea], the inhibition at 10 µM stood at 114% in the experiment on NCI-H929, 88.2% at IGF-1R and 94% in the experiment on KMS-11.

For the molecule `O=C(Nc1ccccc1/C=C/c1n[nH]c2ccccc12)C1CCCCC1` [Compound 23, (E)-N-{2-[2-(1H-indazol-3-yl)vinyl]phenyl}cyclohexanecarboxamide], the figures for the inhibition at 10 µM in the experiment with NCI-H929, on IGF-1R and with KMS-11 were 130%, 95.4% and 109%, respectively.

Turning to `O=C(Nc1ccccc1/C=C/c1n[nH]c2ccccc12)C1CCCC1` [Compound 24, (E)-N-{2-[2-(1H-indazol-3-yl)vinyl]phenyl}cyclopentanecarboxamide], the inhibition at 10 µM with NCI-H929 stood at 116%; on IGF-1R, 97.4%; in the experiment with KMS-11, 110%.

On to `O=C(Cc1cccs1)Nc1ccccc1/C=C/c1n[nH]c2ccccc12` [Compound 25, (E)-N-{2-[2-(1H-indazol-3-yl)vinyl]phenyl}-2-(thiophen-2-yl)acetamide], for which the inhibition at 10 µM in the experiment with NCI-H929 amounted to 116%; at IGF-1R, 86%; with KMS-11 it was 106%.

In the case of `CN(C)c1cccc(C(=O)Nc2ccccc2/C=C/c2n[nH]c3ccccc23)c1` [Compound 27, (E)-3-dimethylamino-N-{2-[2-(1H-indazol-3-yl)vinyl]phenyl}benzamide], the inhibition at 10 µM in the experiment with NCI-H929 stood at 119%; on IGF-1R, 99.3%; with KMS-11, 114%.

With `O=C(Nc1ccccc1/C=C/c1n[nH]c2ccccc12)c1cnccn1` [Compound 28, (E)-N-{2-[2-(1H-indazol-3-yl)vinyl]phenyl}pyrazine-2-carboxamide], the figures for the inhibition at 10 µM in the experiment with NCI-H929, at IGF-1R and with KMS-11 were 116%, 95.2% and 109%, respectively.

Regarding `Cc1ccccc1C(=O)Nc1ccccc1/C=C/c1n[nH]c2ccccc12` [Compound 30, (E)-N-{2-[2-(1H-indazol-3-yl)vinyl]phenyl}-2-methylbenzamide], the inhibition at 10 µM was found to be 115% in the experiment on NCI-H929, 97.6% on IGF-1R and 115% in the experiment with KMS-11.

`O=C(Nc1ccccc1/C=C/c1n[nH]c2ccccc12)c1ccsc1` [Compound 31, (E)-N-{2-[2-(1H-indazol-3-yl)vinyl]phenyl}thiophene-3-carboxamide]: the results for the inhibition at 10 µM in the experiment on NCI-H929, at IGF-1R and with KMS-11 were 114%, 99.7% and 117%, respectively.

Regarding `O=C(Nc1ccccc1/C=C/c1n[nH]c2ccccc12)C1CCCO1` (stereo not drawn) [Compound 32, (E)-N-{2-[2-(1H-indazol-3-yl)vinyl]phenyl}tetrahydrofuran-2-carboxamide], the figures for the inhibition at 10 µM in the experiment on NCI-H929, at IGF-1R and in the experiment on KMS-11 were 113%, 98.6% and 126%, respectively.

Take `O=C(Nc1ccccc1/C=C/c1n[nH]c2ccccc12)C1CC1` [Compound 33, (E)-N-{2-[2-(1H-indazol-3-yl)vinyl]phenyl}cyclopropanecarboxamide]: the inhibition at 10 µM was 108% in the experiment with NCI-H929, 92.4% at IGF-1R and 115% with KMS-11.

`O=C(Nc1ccccc1/C=C/c1n[nH]c2ccccc12)c1ccc(Br)s1` [Compound 34, (E)-5-bromo-N-{2-[2-(1H-indazol-3-yl)vinyl]phenyl}thiophene-2-carboxamide]: the inhibition at 10 µM in the experiment with NCI-H929 is 113%; on IGF-1R, 99.2%; in the experiment on KMS-11, 116%.

On to `O=C(Nc1ccccc1/C=C/c1n[nH]c2ccccc12)N1CCOCC1` [Compound 35, (E)-N-{2-[2-(1H-indazol-3-yl)vinyl]phenyl}morpholine-4-carboxamide], for which the inhibition at 10 µM in the experiment with NCI-H929 turned out to be 110%; on IGF-1R, 98.4%; in the experiment with KMS-11, 125%.

For the molecule `O=C(Nc1ccccc1/C=C/c1n[nH]c2ccccc12)c1cscn1` [Compound 36, (E)-N-{2-[2-(1H-indazol-3-yl)vinyl]phenyl}thiazole-4-carboxamide], the figures for the inhibition at 10 µM with NCI-H929, on IGF-1R and in the experiment with KMS-11 were 112%, 98.6% and 116%, respectively.

As to `O=C(Nc1ccccc1/C=C/c1n[nH]c2ccccc12)c1ccno1` [Compound 37, (E)-N-{2-[2-(1H-indazol-3-yl)vinyl]phenyl}isoxazole-5-carboxamide], the inhibition at 10 µM in the experiment with NCI-H929 stood at 112%; on IGF-1R, 99.1%; with KMS-11, 112%.

Regarding `O=C(CCc1cccs1)Nc1ccccc1/C=C/c1n[nH]c2ccccc12` [Compound 39, (E)-N-{2-[2-(1H-indazol-3-yl)vinyl]phenyl}-3-(thiophen-2-yl)propionamide], the figures for the inhibition at 10 µM in the experiment on NCI-H929, on IGF-1R and with KMS-11 were 68.8%, 59.1% and 91%, respectively.

On to `Cc1ccc(C(=O)Nc2ccccc2/C=C/c2n[nH]c3ccccc23)s1` [Compound 40, (E)-N-{2-[2-(1H-indazol-3-yl)vinyl]phenyl}-5-methylthiophene-2-carboxamide], for which the figures for the inhibition at 10 µM in the experiment on NCI-H929, on IGF-1R and in the experiment with KMS-11 were 125%, 98.8% and 108%, respectively.

Regarding `O=C(Nc1ccccc1/C=C/c1n[nH]c2ccccc12)c1ccc[nH]1` [Compound 42, (E)-N-{2-[2-(1H-indazol-3-yl)vinyl]phenyl}-1H-pyrrole-2-carboxamide], the inhibition at 10 µM was 126% in the experiment on NCI-H929, 98.9% on IGF-1R and 109% in the experiment with KMS-11.

Regarding `CC(=O)c1ccc(C(=O)Nc2ccccc2/C=C/c2n[nH]c3ccccc23)s1` [Compound 43, (E)-5-acetyl-N-{2-[2-(1H-indazol-3-yl)vinyl]phenyl}thiophene-2-carboxamide], the inhibition at 10 µM in the experiment on NCI-H929 was found to be 113%; at IGF-1R, 96.3%; with KMS-11 it was 112%.

As to `O=C(Nc1ccccc1/C=C/c1n[nH]c2ccccc12)C1CCC1` [Compound 44, (E)-N-{2-[2-(1H-indazol-3-yl)vinyl]phenyl}cyclobutanecarboxamide], the inhibition at 10 µM with NCI-H929 is 115%; at IGF-1R it was 98%; in the experiment with KMS-11, 113%.
